From patent publication US8791155B2, “Chroman derivatives” (Edison Pharmaceuticals, Inc., priority 2003, dated 2014)

Tests used:
[1] = test system: dopaminergic neuronal cell line; experiment: High glutamate-induced oxidative stress assay (HGOS); assay type: cell-based; details: Mus musculus; 30 mM glutamate, 16 hrs; read-out: EC50, protection against HGOS cell injury and cell death
Summary of the method: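 Mouse dopaminergic cells were grown 72 h at 33° C, washed into HBSS, then exposed to compounds in glucose-free DMEM with 1 mM glucose and 30 mM glutamate for 16 h at 37° C. Viability was read as Cell Tracker Green fluorescence at 485/538 nm after 30 min of 5 μM dye loading.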

FRDA fibroblasts = experiment: FRDA fibroblast assay for protection from oxidative stress (BSO); assay type: cell-based; details: Homo sapiens, preincubation 24 h before 1 mM BSO, read-out: EC50, reduced cell death in FRDA fibroblasts compared to untreated FRDA fibroblasts
Source text: A cellular assay using FRDA-patient derived fibroblasts (as described by Jauslin, M L et al, Human Molecular Genetics 11; 3055-3063 (2002)); was used to determine the protective effects of the test compounds by analyzing survival of dermal fibroblasts taken from FRDA patients and unaffected normal donors under conditions of partial GSH depletion. Exposure of FRDA fibroblasts to BSO (L-buthionine (S,R)-sulfoximine) under conditions of restricted selenium causes depletion of cellular glutathione (GSH) and severe plasma membrane damage leading to cell death. Preincubation with the test compounds before the addition of BSO was used to determine if they could protect FRDA cells from BSO-mediated cell death.
Primary fibroblasts were derived from donors with a molecular diagnosis of FRDA and control donors with no mitochondria) disease. Lines F2, C2 and C3 were obtained from Coriell Cell Repositories (Camden, N.J., USA; catalog nos GM04078, GM 08402 and GM08399, respectively). All cell types were diagnosed at the molecular level for intronic GAA triplet repeat length in the frataxin gene using a PCR-based method, according to methods known in the art. […] The cells were seeded in 96-well plates at a density of 4000 cells per 100 pI in growth medium consisting of 25% (v/v) M199 EBS and 64% (v/v) MEM EBS without phenol red (Bioconcept, Allschwil, Switzerland) supplemented with 10% (v/v) fetal calf serum (PAA Laboratories, Linz, Austria), 100 U/ml penicillin, 100 μg/ml streptomycin (PAA Laboratories, Linz, Austria), 10 μg/ml insulin (Sigma, Buchs, Switzerland), 10 ng/ml EGF (Sigma, Buchs, Switzerland), 10 ng/ml bFGF (PreproTech, Rocky Hill, N.J., USA) and 2 mM glutamine (Sigma, Buchs, Switzerland). The cells were incubated in the presence of the various test compounds for 24 h before addition of 1 mM BSO (L-buthionine (S,R)-sulfoximine).
Cell viability was measured after the first signs of toxicity appeared in the BSO-treated controls (typically after 16-48 h). The cells were stained for 60 min at room temperature in PBS with 1.2 μm calceinAM and 4 pm ethidium homodimer (Live/Dead assay, Molecular Probes, Eugene, Oreg., USA). Fluorescence intensity was measured with a Gemini Spectramax XS spectrofluorimeter (Molecular Devices, Sunnyvale, Calif., USA) using excitation and emission wavelengths of 485 and 525 nm, respectively.

| Structure (SMILES) | EC50 [1] [µM] | EC50 (FRDA fibroblasts) [µM] |
| --- | --- | --- |
| C=CCSCc1c(O)c(C)c(C)c2c1CCC(C)(C)O2 [5-Allylsulfanylmethyl-2,2,7,8-tetramethyl-chroman-6-ol] | < 5 | 0.01 to 6 |
| Cc1c(C)c2c(c(C)c1O)CCC(C)(C=C(Br)Br)O2 (centres unmarked) [2-(2,2-Dibromo-vinyl)-2,5,7,8-tetramethyl-chroman-6-ol] | < 5 | – |
| Cc1c(O)cc2c(c1C)OC(C)(CC/C=C1\SC(=O)NC1=O)CC2 (centres unmarked) [5-[3-(6-Hydroxy-2,7,8-trimethyl-chroman-2-yl)-propylidene]-thiazolidine-2,4-dione] | < 5 | 0.01 to 6 |
| COC(=O)c1ccc(-c2c(O)c(C)c(C)c3c2CCC(C)(C)O3)cc1 [4-(6-Hydroxy-2,2,7,8-tetramethyl-chroman-5-yl)-benzoic acid methyl ester] | < 5 | – |
| CC1=NN(c2ccccc2)C(=O)C1C(CCC1(C)CCc2cc(O)c(C)c(C)c2O1)C1C(=O)N(c2ccccc2)N=C1C (centres unmarked) [1-(6-Hydroxy-2,7,8-trimethyl-chroman-2-yl)-3-bis-(5-methyl-2-phenyl-2,4-dihydro-pyrazol-3-one-4-yl)-propane] | < 5 | 0.01 to 6 |
